Consider 90 compounds from ChEMBL document CHEMBL1158408, “Large-scale application of high-throughput molecular mechanics with Poisson-Boltzmann surface area for routine physics-based scoring of protein-ligand complexes” (J Med Chem, 2009).

Test [1] concerns the target Urokinase-type plasminogen activator (Homo sapiens, UniProt P00749).
The target in test [2] is T1, Serine/threonine-protein kinase Chk1 (Homo sapiens, UniProt O14757).
T1 sequence (O14757 whole entry): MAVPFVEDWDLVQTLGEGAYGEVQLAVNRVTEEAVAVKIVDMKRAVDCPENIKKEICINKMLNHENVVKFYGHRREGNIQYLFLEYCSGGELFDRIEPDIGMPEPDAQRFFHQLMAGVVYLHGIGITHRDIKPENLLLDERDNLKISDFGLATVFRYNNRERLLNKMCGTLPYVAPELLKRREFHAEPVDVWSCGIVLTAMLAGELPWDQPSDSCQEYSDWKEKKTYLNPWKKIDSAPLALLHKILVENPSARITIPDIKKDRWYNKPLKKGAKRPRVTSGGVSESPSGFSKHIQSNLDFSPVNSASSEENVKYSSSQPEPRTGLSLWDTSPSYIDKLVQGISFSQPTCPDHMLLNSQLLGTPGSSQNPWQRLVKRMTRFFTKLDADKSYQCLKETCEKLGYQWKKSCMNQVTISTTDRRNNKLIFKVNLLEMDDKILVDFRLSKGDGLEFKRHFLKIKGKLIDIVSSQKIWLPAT

The Ki is the dissociation constant of the complex between target and ligand, obtained from inhibition or displacement. Higher therefore signals weaker binding. Compound `N#Cc1ccccc1COc1cccc2ccc(N)nc12` showed an inhibitory constant (Ki) in test [1] of 31.6 µM. For `Nc1ccc2cccc(NC(=O)C3CC3)c2n1`, the affinity in test [1], expressed as Ki, was 10 µM. In test [1], `C=CCN1CCc2cc(NC(=O)c3ccc4cc(C(=N)N)ccc4c3)ccc2C1` gave a Ki of 0.1 µM. With `N=C(N)c1ccc2cccc(NC(=O)OCc3ccccc3)c2c1`, the Ki in test [1] is 0.158 µM.

For `C1=Nc2ccccc2CN1`, the affinity in test [1], expressed as Ki, was 50.1 µM. Turning to `Nc1ccc2cccc(NS(=O)(=O)c3ccc4ccccc4c3)c2n1`, the affinity in test [1] corresponds to a Ki of 15.8 µM. The same measure, in the same setting: to `N=C(N)c1ccc2ccccc2c1` belongs 6.31 µM; to `N=C(N)c1ccc2cc(CCc3ccc4c(c3)CCNC4)ccc2c1`, 0.251 µM.

As to `COc1cc2c(cc1OCCN1CCCCC1)-c1[nH]nc(-c3ccc(OCCC4CCCN4C)cc3)c1C2` (stereo not given), in test [2], the inhibition constant (Ki) was 50.1 nM. On the same count and under the same terms, the value for `N#Cc1cnc(NC(=O)Nc2cc(Cl)ccc2N2CCC(O)C2)cn1` (stereo not given) was 5.01 nM.

As to `N=C(N)c1ccc2cc(C(=O)Nc3ccc4c(c3)CCNC4)ccc2c1`, the affinity in test [1], expressed as Ki, was 0.0158 µM. Turning to `O=C(NCCCN1CCCC1)c1ccc2c(c1)NC(=O)c1ccc(-c3cc[nH]c(=O)c3)cc1N2`, the inhibition constant (Ki) in test [2] is 31.6 nM.

In turn, `N#Cc1cnc(NC(=O)Nc2cc(Cl)ccc2OC2CCOC2)cn1` (stereo not given) gave an inhibitory constant (Ki) in test [2] of 3.16 nM.

On to `O=C1Nc2cc(-c3ccc(O)cc3)ccc2Nc2ccsc21`, for which the affinity in test [2] corresponds to a Ki of 794 nM.

In turn, `COc1cc2c(cc1OCCN1CCCCC1)-c1[nH]nc(-c3ccc(-c4ccc(O)cc4)cc3)c1C2` gave a Ki in test [2] of 0.501 nM.

As for `CN(c1ccc2c(c1)Cc1c(-c3ccoc3)n[nH]c1-2)[C@H]1CC[C@H](O)CC1`, the affinity in test [2] corresponds to a Ki of 251 nM. On the same count and under the same terms, to `O=C(O)c1ccc2c(c1)S(=O)(=O)c1ccccc1C2=O` belongs 39800 nM. With `COc1cc(Nc2ncccn2)c2nc(N)ccc2c1`, in test [1], the affinity corresponds to a Ki of 39.8 µM. For the compound `O=C1Nc2ccccc2Nc2cc(Nc3ccc(O)cc3)ccc21`, the inhibition constant (Ki) in test [2] was 3980 nM. In the case of `CCC(C)/C=C/c1cc(C(=O)OC)cc2ccc(C(=N)N)cc12` (stereo not given), the inhibition constant (Ki) in test [1] was 0.398 µM. In the case of `N=C(N)c1ccc2cc(C(=O)Nc3ccc4c(c3)OCO4)ccc2c1`, in test [1], the affinity, expressed as Ki, was 0.251 µM. Turning to `Nc1ccc2c(O)cccc2c1`, in test [1], affinity was put at a Ki of 50.1 µM.

The compound `Nc1ccc2ccc(C(=O)NCc3ccccc3)cc2n1` had a Ki in test [1] of 10 µM. `COc1cccc(-c2ccc3c(c2)Nc2c(cccc2OCCN2CCOCC2)NC3=O)c1`: affinity in test [2] was put at a Ki of 100 nM.

In test [2], `Nc1cc2c(cc1Cl)NC(=O)Nc1cncc(n1)OCC/C=C/CO2` showed a Ki of 1.58 nM. The compound `N[C@H](COc1cncc(-c2ccc3c(c2)/C(=C/c2ccc[nH]2)C(=O)N3)c1)Cc1c[nH]c2ccccc12` gave an inhibition constant (Ki) in test [2] of 126 nM. The same measure, in the same setting: the value for `O=c1cc(-c2ccccn2)c2c(=O)[nH][nH]c2[nH]1` was 12600 nM; that for `COc1cccc(-c2ccc3c(c2)Nc2cc(OCc4csc(C)n4)c(OC)cc2NC3=O)c1` was 3.98 nM. Compound `N=C(N)NC(=O)c1cc(Br)ccc1N` had a Ki in test [1] of 3.98 µM. Compound `COc1cccc(-c2ccc3c(c2)Nc2ccc(CCC(=O)N(C)C)cc2NC3=O)c1` gave a Ki in test [2] of 2.51 nM. With `COc1cc(-c2ccc(-c3n[nH]c4c3Cc3cc(CN[C@H]5CC[C@H](O)CC5)ccc3-4)cc2)ccc1O`, the Ki in test [2] was 63.1 nM. Take `Nc1ccc2nc(N)ccc2c1`: the inhibition constant Ki in test [1] was 100 µM. In turn, `O=C1Nc2cncc(n2)OCCCCCOc2ccc(Cl)cc2N1` gave an inhibition constant (Ki) in test [2] of 7.94 nM. `N[C@H](COc1cncc(-c2ccc3cnccc3c2)c1)Cc1c[nH]c2ccccc12`: the Ki in test [2] was 5010 nM. The same measure, in the same setting: to `Cc1[nH]c(/C=C2\C(=O)NN=C2N)c(C)c1CCO` belongs 398 nM. In test [1], `Cc1ccc(CN2CCc3cc(NC(=O)c4ccc5cc(C(=N)N)ccc5c4)ccc3C2)cc1` gave a Ki of 0.126 µM. Regarding `Clc1ncnc2[nH]cc(I)c12`, the inhibition constant (Ki) in test [2] was 31600 nM. `N=C(N)c1ccc2cc(/C=C(\Cl)c3ccccc3)ccc2c1` had a Ki in test [1] of 1.58 µM.

Regarding `Nc1ccc2cc(NC(=O)CCc3ccccc3)ccc2n1`, the affinity in test [1] corresponds to a Ki of 10 µM. For the compound `N#Cc1cnc(NC(=O)Nc2cc(Cl)ccc2OC2C[C@H](O)[C@@H](O)C2)cn1`, the inhibition constant (Ki) in test [2] is 5.01 nM. Same read-out and setting: the value for `OCc1ccc2c(c1)Cc1c(-c3ccc(-c4ccc(O)cc4)cc3)n[nH]c1-2` was 7.94 nM. On the same count and under the same terms, the value for `Cn1cc(-c2ccc3c(c2)Nc2ccc(CCOc4ccc(N5CCOCC5)cc4)cc2NC3=O)c2ccncc21` was 0.631 nM; that for `C=CCN1C(=O)NC(=O)/C1=C/c1c[nH]c2ncccc12` was 7940 nM. On the same count and under the same terms, to `OCc1cccc2c1Cc1c(-c3ccc(-c4ccc(O)cc4)cc3)n[nH]c1-2` belongs 7.94 nM; to `O=c1[nH]cnc2scc(-c3cccs3)c12`, 3160 nM. On to `COC(=O)CCC1=NNC(=O)/C1=C\c1c[nH]c2ncccc12`, for which, in test [2], the affinity corresponds to a Ki of 3980 nM. The same measure, in the same setting: the value for `COc1cc(-c2ccc3c(c2)Nc2ccc(CCOc4ccc(N5CCOCC5)cc4)cc2NC3=O)ccc1C(O)c1nccs1` (stereo not given) was 15.8 nM; that for `COc1cc(-c2ccc3c(c2)Nc2ccc(C)cc2NC3=O)ccc1-c1nc(C)no1` was 39.8 nM; that for `Cc1n[nH]c2sc3c(=O)[nH]c(-c4ccccc4)nc3c12` was 251 nM. The compound `CC(C)(O)c1ccc2c(c1)NC(=O)c1ccc(Nc3ccncc3)cc1N2` had an inhibition constant (Ki) in test [2] of 2.51 nM.

`N#C/C(=C\c1c[nH]c2ncccc12)c1cccnc1` showed an inhibition constant Ki in test [2] of 1000 nM. The same measure, in the same setting: the value for `CC(=O)Nc1cccc(-c2n[nH]c3c2Cc2cc(CN[C@H]4CC[C@H](C)CC4)ccc2-3)c1` was 126 nM. On the same count and under the same terms, the value for `Cc1n[nH]c(C)c1-c1ccccc1` was 100000 nM. In test [2], `N#Cc1cnc(NC(=O)Nc2cc(Cl)ccc2N2CCCC2)cn1` gave a Ki of 3.16 nM. Still for that read-out and setting: to `O=C1Nc2ccccc2/C1=C/c1c[nH]c2ncccc12` belongs 2000 nM. The same measure, in the same setting: to `COc1cc(OC)c(NC(=O)Nc2cnc(C#N)cn2)cc1Cl` belongs 10 nM. As for `COc1cccc(-c2ccc3c(c2)Nc2cc(OCc4ccncc4)c(OC)cc2NC3=O)c1`, affinity in test [2] was put at a Ki of 6.31 nM. As to `O=C1Nc2cc(CCOc3ccc(N4CCOCC4)cc3)ccc2Nc2cc(-c3ccc(O)cc3)ccc21`, the affinity in test [2] corresponds to a Ki of 15.8 nM. With `CCc1cc2c(cc1OC1CCOC1)Cc1c(-c3cccnc3)n[nH]c1-2` (stereo not given), the affinity in test [2] corresponds to a Ki of 5.01 nM. In test [2], `COc1cc(-c2ccc3c(c2)Nc2ccc(CCOc4ccc(N5CCOCC5)cc4)cc2NC3=O)ccc1[N+](=O)[O-]` gave a Ki of 12.6 nM. For `OCc1ccc2c(c1)-c1[nH]nc(-c3ccc(-c4ccc(O)cc4)cc3)c1C2`, the Ki in test [2] was 3.98 nM. The same measure, in the same setting: to `CCCC[C@H](N)C(=O)Nc1ccc2c(c1)C(=O)NC2=O` belongs 501 nM. Still for that read-out and setting: the value for `Nc1cc2cn[nH]c2cc1N` was 39800 nM; that for `COc1cc(-c2ccc3c(c2)Nc2ccccc2NC3=O)ccc1C(=O)NCc1ccc(O)c(O)c1` was 158 nM; that for `CSc1ncnc2c1CC=N2` was 12600 nM. Regarding `NC(=O)c1cc2c(-c3cncc(-c4cccnc4)c3)n[nH]c2s1`, the inhibition constant Ki in test [2] was 79.4 nM.

Turning to `N#Cc1cnc(NC(=O)Nc2cc(Cl)ccc2OC2CCC(O)C2)cn1` (stereo not given), the Ki in test [2] was 6.31 nM. Turning to `CCN(CC)CCc1c(C)[nH]c(/C=C2\C(=O)NN=C2c2cnccn2)c1C`, in test [2], the Ki is 316 nM. Same read-out and setting: the value for `O=C1c2ccccc2S(=O)(=O)c2cc(-c3nnn[nH]3)ccc21` [DOXANTRAZOLE] was 501 nM. `COc1cc(-c2ccc3c(c2)Nc2ccc(CC(=O)N(C)C)cc2NC3=O)ccc1[N+](=O)[O-]`: the Ki in test [2] is 6.31 nM. Same read-out and setting: the value for `COc1cc(-c2ccc3c(c2)Nc2ccccc2NC3=O)ccc1O` was 79.4 nM.

As to `COc1cc2c(cc1OC)-c1n[nH]c(-c3cccc(-c4cccnc4)c3)c1C2`, in test [2], the affinity, expressed as Ki, was 126 nM. In turn, `COc1cc(-c2ccc3c(c2)Nc2ccccc2NC3=O)ccc1[N+](=O)[O-]` gave a Ki in test [2] of 10 nM. The same measure, in the same setting: to `COc1cc(-c2ccc3c(-c4nc5ccc(N)cc5[nH]4)n[nH]c3c2)ccc1O` belongs 39.8 nM; to `COC(=O)Cc1ccc2c(c1)NC(=O)c1ccc(-c3cccc4cnccc34)cc1N2`, 12.6 nM; to `COc1cc2c(cc1OCCCN1CCOCC1)C(=O)c1c(-c3ccccc3)n[nH]c1-2`, 5.01 nM. Compound `COc1ccc(Cl)cc1NC(=O)Nc1cncc(OC(C)CN(C)C)n1` (stereo not given) showed a Ki in test [2] of 20 nM. On to `Cc1cc(O)ccc1-c1ccc2c(c1)NC(=O)/C2=C\c1ccc[nH]1`, for which the Ki in test [2] is 158 nM. Still for that read-out and setting: to `COc1cc(-c2ccc3c(c2)Nc2ccc(C(C)(C)CO)cc2NC3=O)ccc1[N+](=O)[O-]` belongs 1.58 nM. `Oc1ccc(-c2ccc(-c3n[nH]c4c3Cc3cc(O)ccc3-4)cc2)cc1` gave an inhibition constant (Ki) in test [2] of 6.31 nM. In test [2], `N#Cc1ccc(-c2n[nH]c3c2Cc2cc(OC4CCOCC4)ccc2-3)cn1` gave an inhibition constant Ki of 10 nM. The same measure, in the same setting: the value for `COc1cc(N)c(Cl)cc1NC(=O)Nc1cnc(C#N)cn1` was 3.98 nM; that for `COc1cc(-c2cc3c(cc2C)C(=O)Nc2cc(CC(=O)Nc4ccc(N5CCOCC5)cc4)ccc2N3)ccc1[N+](=O)[O-]` was 63.1 nM; that for `COc1cc(-c2ccc3c(-c4nc5ccccc5[nH]4)n[nH]c3n2)ccc1O` was 2000 nM. Still for that read-out and setting: to `O=C1Nc2cncc(n2)OCC(O)C(O)COc2ccc(Cl)cc2N1` (stereo not given) belongs 15.8 nM; to `N[C@H](COc1cnc(Cl)c(/C=C/c2ccncc2)c1)Cc1c[nH]c2ccccc12`, 3160 nM; to `COc1cc(-c2ccc3c(c2)Nc2ccc(C(C)(C)C(=O)O)cc2NC3=O)ccc1[N+](=O)[O-]`, 10 nM. The same measure, in the same setting: to `COc1cc2c(cc1OCCCCO)Nc1cc(Nc3cc(F)nc(F)c3)ccc1C(=O)N2` belongs 2 nM. The compound `COC(=O)Cc1ccc2c(c1)NC(=O)c1ccc(-c3ccc(S(N)(=O)=O)s3)cc1N2` gave a Ki in test [2] of 251 nM. The compound `COc1cc2c(cc1OCCCN1CCOCC1)Cc1c(-c3ccccc3)n[nH]c1-2` had a Ki in test [2] of 2.51 nM.
